ChEMBL document CHEMBL2203074 (Bioorg Med Chem Lett, 2012)
Values belong to the compound of their own block, whether it stands above or below them. Activity calls are given as the source filed them. No cut-off for these calls is given here.

Legend:
[1] = Inhibition of amyloid beta (1-42) aggregation at 20 uM after 48 hrs by thioflavin T fluorescence method relative to control
[2] = Inhibition of amyloid beta (1-42) aggregation at 20 uM after 24 hrs by transmission electron microscopy
SH-SY5Y [3] = assay: Neuroprotective activity in human SH-SY5Y cells assessed as decrease in tertiary butylhydroperoxide-induced radical formation incubated for 24 hrs prior to tertiary butylhydroperoxide challenge measured after 30 mins by DCFH-DA staining-based fluorescence assay; type: functional, cell-based
SH-SY5Y [4] = assay: Cytotoxicity against human SH-SY5Y cells assessed as cell viability at 60 uM after 48 hrs by MTT assay; type: cell-based
[5] = Antioxidant activity assessed as trolox equivalent of AAPH-induced radical scavenging activity incubated for 10 mins prior to APPH challenge measured every minute for 120 mins by ORAC assay; type: functional
SH-SY5Y [6] = assay: Cytotoxicity against human SH-SY5Y cells assessed as cell viability at 12.5 to 25 uM after 48 hrs by MTT assay; type: cell-based
SH-SY5Y [7] = assay: Cytotoxicity against human SH-SY5Y cells assessed as cell viability at 25 uM after 48 hrs by MTT assay; type: cell-based
SH-SY5Y [8] = assay: Neuroprotective activity in human SH-SY5Y cells assessed as decrease in tertiary butylhydroperoxide-induced radical formation at 10 uM incubated for 24 hrs prior to tertiary butylhydroperoxide challenge measured after 30 mins by DCFH-DA staining-based fluorescence assay; type: functional; set-up: scale not given: the % may be the effect or the level left

Compound: CCNc1ccc(/C=C/c2cc(O)cc(O)c2)cc1
Activity [5]: 5.19 equiv | inhibition [1]: 68.6% | Activity (SH-SY5Y [3]): Dose-dependent effect | Activity (SH-SY5Y [7]): Toxic

Compound: Oc1cc(O)cc(/C=C/c2ccc(NC3CCCC3)cc2)c1
Activity [5]: 3.37 equiv | inhibition [1]: 68.7%

Compound: CN(C)c1ccc(CCc2cc(O)cc(O)c2)cc1
Activity [5]: 5.21 equiv | inhibition [1]: 48.5%

Compound: CC(C)Nc1ccc(/C=C/c2cc(O)cc(O)c2)cc1
Activity [5]: 4.12 equiv | Activity (SH-SY5Y [6]): Non-toxic | inhibition [1]: 71.7% | inhibition [2]: Active | Activity (SH-SY5Y [3]): Dose-dependent effect | Activity (SH-SY5Y [8]): 37%

Compound: Oc1cc(O)cc(/C=C/c2ccc(NC3CCCCC3)cc2)c1
Activity [5]: 2.25 equiv | inhibition [1]: 65.5%

Compound: CCCNc1ccc(/C=C/c2cc(O)cc(O)c2)cc1
Activity [5]: 4.33 equiv | inhibition [1]: 66.7%

Compound: CN(C)c1ccccc1/C=C/c1cc(O)cc(O)c1
Activity [5]: 2.05 equiv | inhibition [1]: 59.4%

Compound: Oc1cc(O)cc(/C=C/c2ccncc2)c1
Activity [5]: 1.71 equiv | inhibition [1]: 13.6%

Second part, led by results:

inhibition [1]: 69.7% | inhibition [2]: Active
Compound: Oc1ccc(/C=C/c2cc(O)cc(O)c2)cc1 [RESVERATROL]
Activity (SH-SY5Y [3]): Dose-dependent effect | Activity (SH-SY5Y [4]): Toxic

inhibition [1]: 63.7%
Compound: CNc1ccc(/C=C/c2cc(O)cc(O)c2)cc1
Activity [5]: 5.54 equiv | Activity (SH-SY5Y [6]): Non-toxic | Activity (SH-SY5Y [3]): Dose-dependent effect

inhibition [1]: 61.5%
Compound: CN(C)c1cccc(/C=C/c2cc(O)cc(O)c2)c1
Activity [5]: 3.93 equiv

inhibition [1]: 43.6%
Compound: CC(C)(C)c1ccc(/C=C/c2cc(O)cc(O)c2)cc1
Activity [5]: 1.28 equiv

inhibition [1]: 25.2%
Compound: Oc1cc(O)cc(/C=C/c2ccc(Br)cc2)c1
Activity [5]: 2.33 equiv

inhibition [1]: 65.2%
Compound: CN(C)c1ccc(/C=C/c2cc(O)cc(O)c2)cc1
Activity [5]: 4.7 equiv | Activity (SH-SY5Y [6]): Non-toxic

inhibition [1]: 64.8%
Compound: CCN(CC)c1ccc(/C=C/c2cc(O)cc(O)c2)cc1
Activity [5]: 3.31 equiv

inhibition [1]: 7.02%
Compound: COc1cc(/C=C/c2ccc(N(C)C)cc2)cc(OC)c1
Activity [5]: 3.46 equiv

inhibition [1]: 69%
Compound: CCCN(CCC)c1ccc(/C=C/c2cc(O)cc(O)c2)cc1
Activity [5]: 2.37 equiv
